Source: publication PMC4955735 (Anesthesiology, 2016)
pIC50: −log10 of the molar value. “Also recorded” adds a separate entry of the source. Like-named read-outs stand apart in the source and are kept apart here.

Tests used:
[1] = system: human white blood cells (THP-1); test: MTS cell viability assay; format: cell-based; conditions: calabadion 2 up to 1 mM
Swiss Webster mice = test: Dose escalation; format: in vivo, mouse
Sprague-Dawley rats [2] = test: Maximal tolerated dose escalation study with histopathology in rats; format: in vivo, rat
[3] = system: THP-1, HepG2 and HEK293 cells; test: Adenylate kinase release cell necrosis; format: cell-based, human; conditions: calabadion 2 up to 1 mM
Sprague-Dawley rats [4] = test: Burst suppression ratio and blood pressure during continuous etomidate infusion; format: in vivo, rat; conditions: continuous etomidate i.v.; escalating calabadion 2 infusion; returned from 83%; n=10
Job plot [5] = format: physicochemical; conditions: calabadion 2•ketamine, total 1 mM, pD 7.4; establishes 1:1 complex
S.typhimurium TA 1537 = test: Bacteria reverse mutation assay; conditions: for ratio of number of colonies after treatment relative to untreated bacteria: <1.6 not mutagenic
liver cells (HepG2) = test: MTS cell viability assay; format: cell-based, human; conditions: calabadion 2 up to 1 mM
Sprague-Dawley rats [6] = test: Time to recovery from loss of righting reflex; format: in vivo, rat
[7] = system: S.typhimurium TA1535, TA 1537, TA 98 and TA 100; test: Bacteria reverse mutation assay; conditions: Ames test, −/+S9
S.typhimurium TA 100 = conditions: for ratio of number of colonies after treatment relative to untreated bacteria: <1.6 not mutagenic
Job plot [8] = format: physicochemical; conditions: calabadion 2•etomidate; establishes 1:1 complex
S.typhimurium TA 1535 = conditions: for ratio of number of colonies after treatment relative to untreated bacteria: <1.6 not mutagenic
rats = test: Balance beam test of functional mobility after anesthesia; format: in vivo, rat; conditions: n=7
S.typhimurium TA 98 = test: Bacteria reverse mutation assay; conditions: for ratio of number of colonies after treatment relative to untreated bacteria: <1.6 not mutagenic
hERG channel = hERG channel (Homo sapiens, UniProt Q12809); conditions: read-out: IC50, hERG channel; CHO-hERG, patch clamp, up to 25 μM
Sprague-Dawley rats [9] = test: Total EEG power and blood pressure during continuous ketamine infusion; format: in vivo, rat; conditions: highest calabadion 2 dose, baseline 96 mmHg, n=10
kidney cells (HEK293) = test: MTS cell viability assay; format: cell-based, human; conditions: calabadion 2 up to 1 mM

hERG channel, sequence (Q12809 whole entry, the tested form may be a part): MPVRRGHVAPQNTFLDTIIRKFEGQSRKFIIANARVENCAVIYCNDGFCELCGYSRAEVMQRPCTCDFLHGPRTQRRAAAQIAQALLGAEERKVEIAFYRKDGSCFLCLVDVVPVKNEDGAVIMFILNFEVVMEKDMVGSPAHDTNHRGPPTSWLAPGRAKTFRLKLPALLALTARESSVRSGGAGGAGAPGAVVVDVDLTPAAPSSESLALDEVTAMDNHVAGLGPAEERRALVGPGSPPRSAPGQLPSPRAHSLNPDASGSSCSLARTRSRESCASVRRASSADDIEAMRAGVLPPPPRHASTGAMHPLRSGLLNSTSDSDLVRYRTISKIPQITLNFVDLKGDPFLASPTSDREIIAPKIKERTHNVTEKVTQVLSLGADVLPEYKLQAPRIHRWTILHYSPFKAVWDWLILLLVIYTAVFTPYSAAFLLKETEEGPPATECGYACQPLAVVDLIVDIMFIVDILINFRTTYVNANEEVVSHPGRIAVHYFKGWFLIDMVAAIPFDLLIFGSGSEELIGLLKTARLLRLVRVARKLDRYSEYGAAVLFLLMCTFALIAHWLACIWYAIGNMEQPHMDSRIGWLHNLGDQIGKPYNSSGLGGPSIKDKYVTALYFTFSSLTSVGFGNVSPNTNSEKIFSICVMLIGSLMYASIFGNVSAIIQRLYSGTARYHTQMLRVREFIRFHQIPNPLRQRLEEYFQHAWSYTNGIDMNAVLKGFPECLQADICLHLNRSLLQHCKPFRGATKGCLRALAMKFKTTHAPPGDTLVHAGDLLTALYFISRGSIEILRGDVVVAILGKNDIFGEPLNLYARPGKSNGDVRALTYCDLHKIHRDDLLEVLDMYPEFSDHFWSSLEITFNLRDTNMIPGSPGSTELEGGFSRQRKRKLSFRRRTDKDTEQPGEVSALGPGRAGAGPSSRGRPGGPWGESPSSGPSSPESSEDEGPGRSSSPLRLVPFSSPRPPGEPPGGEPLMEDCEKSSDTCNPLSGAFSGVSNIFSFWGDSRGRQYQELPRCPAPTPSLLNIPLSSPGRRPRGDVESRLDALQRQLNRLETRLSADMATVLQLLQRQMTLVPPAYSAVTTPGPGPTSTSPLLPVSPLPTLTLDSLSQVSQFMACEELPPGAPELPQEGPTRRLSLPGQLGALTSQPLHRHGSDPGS

Compound: C[C@]12N3Cc4c(c(OCCCS(=O)(=O)[O-])c5ccccc5c4OCCCS(=O)(=O)[O-])CN1C(=O)N1CN4C(=O)N5CN6C(=O)N7CN8C(=O)N9Cc%10c(c(OCCCS(=O)(=O)[O-])c%11ccccc%11c%10OCCCS(=O)(=O)[O-])CN%10C(=O)N(CN%11C(=O)N(CN%12C(=O)N(CN(C3=O)[C@]12C)[C@@H]4[C@H]%125)[C@@H]6[C@H]%117)[C@]8(C)[C@@]9%10C.[Na+].[Na+].[Na+].[Na+] [Calabadion 2]
- cell viability [1]: did not observe a significant reduction
- average weight change of mice (Swiss Webster mice; all groups (29, 87, 145, 203 mg/kg i.p. daily for 14 days), after 28 days): ≥ 95%
- tolerance in maximum tolerated dose study (Swiss Webster mice; mice, i.p. daily for 14 days, up to 203 mg/kg): good tolerance
- tolerability at effective doses (Sprague-Dawley rats [2]): well tolerated
- pathology finding, kidney (Sprague-Dawley rats [2]; 5 of 6 animals that received the 2 highest doses, not at 1.6 g/kg): • A mild vacuolation of the epithelium in the P1 and P2 segments of the proximal convoluted tubule.
- pathology finding, liver (Sprague-Dawley rats [2]; all animals that received 3.1–5.1 g/kg, 1 animal that received 1.6 g/kg): • Mild to moderate vacuolation that is consistent with mild fat accumulation.
- pathology finding, lung (Sprague-Dawley rats [2]; animals receiving 3.1–5.1 g/kg): Mild cellular necrosis, some apparent fluid in alveolar spaces and enlarged, foamy pulmonary alveolar macrophages; also recorded: Occasional distension of pulmonary alveolar capillaries with red blood cells and in a few animals evidence of possible pulmonary emboli; also recorded: Macrophages, especially in connective tissue or adipose tissue that were distended with a bluish, hematoxylin-positive material that appeared to be localized in the lysosomes
- pathology finding, heart (Sprague-Dawley rats [2]; i.v. up to 5.1 g/kg, all doses): • Within normal limits
- pathology finding, spleen (Sprague-Dawley rats [2]; i.v. up to 5.1 g/kg, all doses): • Within normal limits
- median lethal dose (LD50) (Sprague-Dawley rats [2]; i.v., escalating doses on consecutive days, n=10): 2700 mg/kg
- cell lysis [3]: no cell lysis
- mean arterial blood pressure (MAP), % of pre-etomidate baseline (Sprague-Dawley rats [4]): 101%
- Job plot maximum (mole fraction) (Job plot [5]): 0.5
- number of colonies growing after treatment (S.typhimurium TA 1537; TA 1537, +S9, 0.012 mg per plate): 2 ± 1
- number of colonies growing after treatment (S.typhimurium TA 1537; TA 1537, +S9, 0.037 mg per plate): 4 ± 1
- number of colonies growing after treatment (S.typhimurium TA 1537; TA 1537, +S9, 0.11 mg per plate): 6 ± 1
- number of colonies growing after treatment (S.typhimurium TA 1537; TA 1537, +S9, 0.33 mg per plate): 6 ± 1
- number of colonies growing after treatment (S.typhimurium TA 1537; TA 1537, +S9, 1 mg per plate): 5 ± 2
- ratio of number of colonies after treatment relative to untreated bacteria (S.typhimurium TA 1537; TA 1537, +S9): 0.71
- number of colonies growing after treatment (S.typhimurium TA 1537; TA 1537, −S9, 0.012 mg per plate): 7 ± 2
- number of colonies growing after treatment (S.typhimurium TA 1537; TA 1537, −S9, 0.037 mg per plate): 8 ± 2
- number of colonies growing after treatment (S.typhimurium TA 1537; TA 1537, −S9, 0.11 mg per plate): 7 ± 2
- number of colonies growing after treatment (S.typhimurium TA 1537; TA 1537, −S9, 0.33 mg per plate): 8 ± 1
- number of colonies growing after treatment (S.typhimurium TA 1537; TA 1537, −S9, 1 mg per plate): 3 ± 2
- ratio of number of colonies after treatment relative to untreated bacteria (S.typhimurium TA 1537; TA 1537, −S9): 0.3
- cell viability (liver cells (HepG2)): did not observe a significant reduction
- decrease of time to recovery from LORR relative to saline (Sprague-Dawley rats [6]; etomidate-anesthetized rats): ~50%
- decrease of time to recovery from LORR relative to saline (Sprague-Dawley rats [6]; ketamine anesthetized rats): about 30%
- ED50 (median dose for accelerated recovery from LORR with 50% probability) (Sprague-Dawley rats [6]; reversal of 4 mg/kg i.v. etomidate bolus): 984 mg/kg
- ED50 (median dose for accelerated recovery from LORR with 50% probability) (Sprague-Dawley rats [6]; reversal of 30 mg/kg i.v. bolus of ketamine, 30 mg/kg): 167 mg/kg
- mutagenic potential [7]: no mutagenic potential
- number of colonies growing after treatment (S.typhimurium TA 100; TA 100, +S9, 0.012 mg per plate): 114 ± 2
- number of colonies growing after treatment (S.typhimurium TA 100; TA 100, +S9, 0.037 mg per plate): 112 ± 8
- number of colonies growing after treatment (S.typhimurium TA 100; TA 100, +S9, 0.11 mg per plate): 91 ± 6
- number of colonies growing after treatment (S.typhimurium TA 100; TA 100, +S9, 0.33 mg per plate): 101 ± 7
- number of colonies growing after treatment (S.typhimurium TA 100; TA 100, +S9, 1 mg per plate): 97 ± 4
- ratio of number of colonies after treatment relative to untreated bacteria (S.typhimurium TA 100; TA 100, +S9): 0.88
- number of colonies growing after treatment (S.typhimurium TA 100; TA 100, −S9, 0.012 mg per plate): 92 ± 11
- number of colonies growing after treatment (S.typhimurium TA 100; TA 100, −S9, 0.037 mg per plate): 100 ± 6
- number of colonies growing after treatment (S.typhimurium TA 100; TA 100, −S9, 0.11 mg per plate): 94 ± 4
- number of colonies growing after treatment (S.typhimurium TA 100; TA 100, −S9, 0.33 mg per plate): 105 ± 9
- number of colonies growing after treatment (S.typhimurium TA 100; TA 100, −S9, 1 mg per plate): 106 ± 6
- ratio of number of colonies after treatment relative to untreated bacteria (S.typhimurium TA 100; TA 100, −S9): 1.06
- Job plot maximum (mole fraction) (Job plot [8]): 0.5
- number of colonies growing after treatment (S.typhimurium TA 1535; TA 1535, +S9, 0.012 mg per plate): 10 ± 2
- number of colonies growing after treatment (S.typhimurium TA 1535; TA 1535, +S9, 0.037 mg per plate): 6 ± 2
- number of colonies growing after treatment (S.typhimurium TA 1535; TA 1535, +S9, 0.11 mg per plate): 7 ± 1
- number of colonies growing after treatment (S.typhimurium TA 1535; TA 1535, +S9, 0.33 mg per plate): 10 ± 5
- number of colonies growing after treatment (S.typhimurium TA 1535; TA 1535, +S9, 1 mg per plate): 7 ± 3
- ratio of number of colonies after treatment relative to untreated bacteria (S.typhimurium TA 1535; TA 1535, +S9): 0.87
- number of colonies growing after treatment (S.typhimurium TA 1535; TA 1535, −S9, 0.012 mg per plate): 6 ± 1
- number of colonies growing after treatment (S.typhimurium TA 1535; TA 1535, −S9, 0.037 mg per plate): 10 ± 5
- number of colonies growing after treatment (S.typhimurium TA 1535; TA 1535, −S9, 0.11 mg per plate): 8 ± 3
- number of colonies growing after treatment (S.typhimurium TA 1535; TA 1535, −S9, 0.33 mg per plate): 7 ± 4
- number of colonies growing after treatment (S.typhimurium TA 1535; TA 1535, −S9, 1 mg per plate): 8 ± 3
- ratio of number of colonies after treatment relative to untreated bacteria (S.typhimurium TA 1535; TA 1535, −S9): 0.72
- reduction of time slope of recovery of balance vs saline (rats; after 4 mg/kg etomidate i.v.): 4.9 min
- reduction of time slope of recovery of balance vs saline (rats; after 30 mg/kg ketamine i.v.): 3.9 min
- reduction of time slope of recovery of balance vs saline (rats; after 50 mg/kg ketamine i.m., calabadion 2 i.p.): 15.7 min
- number of colonies growing after treatment (S.typhimurium TA 98; TA 98, +S9, 0.012 mg per plate): 24 ± 4
- number of colonies growing after treatment (S.typhimurium TA 98; TA 98, +S9, 0.037 mg per plate): 27 ± 3
- number of colonies growing after treatment (S.typhimurium TA 98; TA 98, +S9, 0.11 mg per plate): 23 ± 5
- number of colonies growing after treatment (S.typhimurium TA 98; TA 98, +S9, 0.33 mg per plate): 24 ± 7
- number of colonies growing after treatment (S.typhimurium TA 98; TA 98, +S9, 1 mg per plate): 29 ± 6
- ratio of number of colonies after treatment relative to untreated bacteria (S.typhimurium TA 98; TA 98, +S9): 1.07
- number of colonies growing after treatment (S.typhimurium TA 98; TA 98, −S9, 0.012 mg per plate): 24 ± 4
- number of colonies growing after treatment (S.typhimurium TA 98; TA 98, −S9, 0.037 mg per plate): 18 ± 8
- number of colonies growing after treatment (S.typhimurium TA 98; TA 98, −S9, 0.11 mg per plate): 30 ± 10
- number of colonies growing after treatment (S.typhimurium TA 98; TA 98, −S9, 0.33 mg per plate): 21 ± 5
- number of colonies growing after treatment (S.typhimurium TA 98; TA 98, −S9, 1 mg per plate): 20 ± 5
- ratio of number of colonies after treatment relative to untreated bacteria (S.typhimurium TA 98; TA 98, −S9): 1.05
- pIC50 (hERG channel): < 4.60
- MAP compared to pre-ketamine baseline (Sprague-Dawley rats [9]): ~130%
- cell viability (kidney cells (HEK293)): only a slight dip
